For the assay, the system named is anti-ATLA antibody. The assay is described as follows: ELISA of Example 24: single peptides and 1:1 mixture, dried stored cups. It counts as binding, human. Particulars: for OD492: listed as Ex. 9. On the procedure:
Each serum specimen was assayed for the presence of the anti-ATLA antibody by the following ELISA in which an absorbance was measured.
The peptide prepared in Example 1 or the peptide prepared in Reference Example 9 were each dissolved in 0.01M carbonate buffer (pH 9.5) to prepare a solution containing each peptide. In addition, a solution containing both peptides was prepared by mixing the above two solutions at a concentration ratio of 1:1 (the former:the latter). Each 100 μl of the resulting peptide solutions was added to a cup for ELISA made of polystyrene (the same as mentioned above) and the mixture was allowed to stand at 4° C. overnight so that the peptide is coated on the cup. After removing the peptide solution in these cups, to each cup was added PBS (200 μl ) containing 20% by volume of normal goat serum and the mixture was allowed to stand at room temperature for 3 hours to block non-specific protein binding sites. After removing the blocking solution in the cups, the cups were dried and stored at 4° C.
Using PBS containing 10% by volume of normal goat serum and 0.05% by volume of Tween 20 as a diluent, the diluent and each serum specimen (15 specimens of the ATLV-carrier serum and 15 specimens of the normal human serum) was mixed at a ratio of 20:1 (diluent:specimen; v/v) and each 100 μl of the resulting diluted serums was added to above each assay cup. After incubation at 37° C. for 1 hour, the cups were washed with PBS containing 0.05% by volume of Tween 20 (×3) and then with PBS (×1).
To each resulting assay cup was added PBS containing horseradish peroxidase conjugated goat anti-human IgG antibody (diluted at an optimal concentration with PBS containing 10% by volume of normal goat serum and 0.2% by volume of Tween 20; 100 μl ). After incubation at 37° C. for 30 minutes, these cups were washed with PBS containing 0.05% by volume of Tween 20 (×3) and then with PBS (×1). […] After the mixtures were allowed to stand at room temperature for 15 minutes, to each mixture was added 1N sulfuric acid (100 μl) to stop the reaction and an absorbance at 492 nm (OD492) of each reaction solution was measured.
Cutoff value was determined using the OD492 values of the fifteen normal human serums and used for determination as to whether the specimens are positive or negative for the anti-ATLA antibody. The cutoff value was calculated by the equation: cutoff value = ((mean value of OD492 values of the normal human serum) +2SD). When the presence of the anti-ATLA antibody in each serum specimen was assayed using this cutoff value, all ATLV-carrier serums were determined to be positive and all normal human serums were determined to be negative.
On the technique in general: ELISA stands for enzyme-linked immunosorbent assay.

The record followed here is US5194586A, “Anti-ATLA antibody binding peptides” (Kuraray Co., Ltd., priority 1989, dated 1993).

Several values for one entry are separate records, joined by “and”; a condition that tells them apart may be missing. Equal entries are not always repeated.

Turning to “Example 9: peptide (I), X is -Lys-Lys-Lys-, A is the env peptide fragment (A-3); SEQ ID NO: 14 (KKKFLNTEPSQLPPTAPPLLPHSNLDHI)”, the OD492 is 0.873 and 0.973 and 1.405 and 0.099 and 1.623 and 1.437 and 0.137 and 0.088 and 0.111 and 1.029 and 1.071 and 1.156 and 1.061 and 0.549 and 1.478 (ATLV-carrier serum, individual specimens No. 1-15, diluent:specimen 20:1); 0.078 and 0.062 and 0.040 and 0.089 and 0.133 and 0.103 and 0.099 and 0.083 and 0.151 and 0.065 and 0.093 and 0.097 and 0.100 and 0.094 and 0.154 (normal human serum, individual specimens No. 1-15). Moreover, the Cutoff value (mean OD492 of the normal human serum + 2SD) is on record as 0.158. The “Mean OD492” value (mean of the fifteen normal human serums) was 0.096.
